The values below come from patent US20070249620A1, “Urea Derivative” (priority 2004, published 2007).

The target in one data set is T1, mouse DGAT1 (Mus musculus, UniProt Q9Z2A7).
T1 construct: made in house; host or cells: insect cells (High Five, Sf9, Sf21, etc.), baculovirus expression system (Invitrogen)
T1 sequence (Q9Z2A7 1-498): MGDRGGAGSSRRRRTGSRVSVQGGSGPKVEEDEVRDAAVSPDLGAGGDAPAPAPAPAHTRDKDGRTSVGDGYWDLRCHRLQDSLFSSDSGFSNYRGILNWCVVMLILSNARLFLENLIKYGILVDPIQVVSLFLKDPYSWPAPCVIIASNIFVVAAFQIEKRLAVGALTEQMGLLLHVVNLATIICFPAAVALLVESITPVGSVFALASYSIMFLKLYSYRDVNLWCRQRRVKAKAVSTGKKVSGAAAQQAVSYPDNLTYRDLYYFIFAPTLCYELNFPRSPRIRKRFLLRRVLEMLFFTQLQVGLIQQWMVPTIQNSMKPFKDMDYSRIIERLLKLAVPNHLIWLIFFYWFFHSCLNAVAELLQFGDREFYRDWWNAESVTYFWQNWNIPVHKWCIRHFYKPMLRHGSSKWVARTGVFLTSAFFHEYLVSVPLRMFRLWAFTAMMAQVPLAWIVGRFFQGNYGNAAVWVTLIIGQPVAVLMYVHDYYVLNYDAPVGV
Briefly: DGAT1 inhibitory effect test (microsome fraction, [14C]-oleoyl-CoA, triglyceride radioactivity by TLC). In kind it is biochemical. The conditions noted are these: 0.5 h; concentration of the test compound 0.1 μg/ml; mouse DGAT1 microsomes, 23° C., 30 minutes; read-out: Inhibitory ratio. How it is done: The cDNA which encodes mouse DGAT1 was cloned from a mouse cDNA library by polymerase chain reaction (hereinafter referred to as “PCR”) and introduced into an insect cell virus vector (baculovirus expression system, Invitrogen). After insect cells (High Five, Sf9, Sf21, etc., Invitrogen) were infected with the virus, the cells were collected in buffer A [0.1M sucrose, 50 mM KCl, 40 mM potassium phosphate (pH 7.4), 30 mM EDTA, 1% Protease inhibitor cocktail (SIGMA, P-8340)] and crushed with a Polytron homogenizer. The supernatant obtained by subjecting the homogenate to low speed centrifugal processing (10,000 ×g, 30 minutes) was further subjected to higher-speed centrifugal processing (100,000 ×g, 60 minutes) and the precipitate was resuspended in buffer A as the microsome fraction and used as DGAT1 enzyme. The DGAT1 enzyme was divided into small volumes and stored at −80° C.
(2) DGAT1 Inhibitory Effect Test
The reaction liquid of the following composition [175 mM Tris-HCl (pH 8.0), 8 mM MgCl2, 1 mg/ml BSA, 0.5 mM 1,2-dioleoyl-sn-glycerol (EtOH solution of 10-fold concentration, 10% added), 30 μM[14C]-oleoyl-CoA (about 50 mCi/mmol), 0.5% triton X-100, DGAT1 enzyme (10 μg) obtained in Test Example 1(1), test compound or vehicle (DMSO/MeOH, 7:3 solution, 5% added), total volume 50 μl] was incubated at room temperature (23° C.) for 30 minutes. A reaction terminating solution (70 μl) consisting of isopropanol/1-heptane/water (80:20:2, v/v/v) was added to the reaction solution and stirred, and subsequently stirred with water (30 μl) and 1-heptane (100 μl). The 1-heptane layer (50 μl) was spotted onto a TLC plate and developed with a developing solvent consisting of 1-hexane/diethyl ether/acetic acid (85:15:1, v/v/v). Radioactivity of triglyceride fraction was quantified by BAS2000 bio image analyzer (Fuji Film) and the inhibitory effect of the test compounds was calculated by the following formula through comparison with control. Here, radioactivity at no reaction (0 minutes incubation) was assumed as background. Inhibitory ratio=100−[(Radioactivity when test compound was added)−(Background)]/[(Radioactivity by control)−(Background)]×100

Structures are written as SMILES.

As for `COc1ccc(F)cc1NC(=O)Nc1ccc(N2CCN(C(=O)Nc3ccccc3C(F)(F)F)CC2)cc1` [Example 96, 4-{4-[3-(5-fluoro-2-methoxy-phenyl)-ureido]-phenyl}-piperazine-1-carboxylic acid (2-trifluoromethyl-phenyl)-amide], the melting point lay in the range of 229 to 230 °C. Moreover, the inhibition at 0.1 µg/mL on mouse DGAT1 is ≥ 50%.
The matching figures for `COc1ccc(F)cc1NC(=O)Nc1ccc(N2CCN(C(=O)Nc3ccccc3C)CC2)cc1` [Example 97, 4-{4-[3-(5-fluoro-2-methoxy-phenyl)-ureido]-phenyl}-piperazine-1-carboxylic acid o-tolylamide]: 222 to 224 °C and ≥ 50%.
The matching figures for `COc1ccc(F)cc1NC(=O)Nc1ccc(N2CCN(C(=O)Nc3c(C)cccc3Cl)CC2)cc1` [Example 98, 4-{4-[3-(5-fluoro-2-methoxy-phenyl)-ureido]-phenyl}-piperazine-1-carboxylic acid (2-chloro-6-methyl-phenyl)-amide]: 240 to 241 °C and ≥ 50%.
Consider `COc1ccc(F)cc1NC(=O)Nc1ccc(N2CCN(C(=O)Nc3c(C)cccc3C)CC2)cc1` [Example 99, 4-{4-[3-(5-fluoro-2-methoxy-phenyl)-ureido]-phenyl}-piperazine-1-carboxylic acid (2,6-dimethyl-phenyl)-amide], for which the melting point fell in the range of 226 to 228 °C. Also, the inhibition at 0.1 µg/mL at mouse DGAT1 was ≥ 50%.
The matching figures for `COc1ccc(F)cc1NC(=O)Nc1ccc(N2CCN(C(=O)Nc3c(F)cccc3C(F)(F)F)CC2)cc1` [Example 100, 4-{4-[3-(5-fluoro-2-methoxy-phenyl)-ureido]-phenyl}-piperazine-1-carboxylic acid (2-fluoro-6-trifluoromethyl-phenyl)-amide]: 181 to 183 °C and ≥ 50%.
The matching figures for `COc1ccc(F)cc1NC(=O)Nc1ccc(N2CCN(C(=O)Nc3c(Cl)cccc3Cl)CC2)cc1` [Example 101, 4-{4-[3-(5-fluoro-2-methoxy-phenyl)-ureido]-phenyl}-piperazine-1-carboxylic acid (2,6-dichloro-phenyl)-amide]: 235 to 237 °C and ≥ 50%.
`CCOc1ccc(Cl)cc1NC(=O)Nc1ccc(N2CCN(C(=O)Nc3ccccc3C(F)(F)F)CC2)cc1` [Example 102, 4-{4-[3-(5-chloro-2-ethoxy-phenyl)-ureido]-phenyl}-piperazine-1-carboxylic acid (2-trifluoromethyl-phenyl)-amide] displayed a melting point of 219 to 221 °C. In addition, the inhibition at 0.1 µg/mL at mouse DGAT1 is ≥ 50%.
For the compound `CCOc1ccc(Cl)cc1NC(=O)Nc1ccc(N2CCN(C(=O)Nc3c(C)cccc3Cl)CC2)cc1` [Example 103, 4-{4-[3-(5-chloro-2-ethoxy-phenyl)-ureido]-phenyl}-piperazine-1-carboxylic acid (2-chloro-6-methyl-phenyl)-amide], the melting point is 159 to 161 °C. The inhibition at 0.1 µg/mL at mouse DGAT1 was ≥ 50%.
The matching figures for `CCOc1ccc(Cl)cc1NC(=O)Nc1ccc(N2CCN(C(=O)Nc3c(C)cccc3C)CC2)cc1` [Example 104, 4-{4-[3-(5-chloro-2-ethoxy-phenyl)-ureido]-phenyl}-piperazine-1-carboxylic acid (2,6-dimethyl-phenyl)-amide]: 144 to 146 °C and ≥ 50%.
In turn, `CCOc1ccc(Cl)cc1NC(=O)Nc1ccc(N2CCN(C(=O)Nc3c(F)cccc3C(F)(F)F)CC2)cc1` [Example 105, 4-{4-[3-(5-chloro-2-ethoxy-phenyl)-ureido]-phenyl}-piperazine-1-carboxylic acid (2-fluoro-6-trifluoromethyl-phenyl)-amide] had a melting point of 146 to 148 °C. Further, the inhibition at 0.1 µg/mL on mouse DGAT1 was ≥ 50%.
The matching figures for `CCOc1ccc(Cl)cc1NC(=O)Nc1ccc(N2CCN(C(=O)Nc3ccc(OC)cc3C)CC2)cc1` [Example 106, 4-{4-[3-(5-chloro-2-ethoxy-phenyl)-ureido]-phenyl}-piperazine-1-carboxylic acid (4-methoxy-2-methyl-phenyl)-amide]: 210 to 213 °C and ≥ 50%.
In the case of `CCOc1ccc(Cl)cc1NC(=O)Nc1ccc(N2CCN(C(=O)Nc3ccc(C)cc3Cl)CC2)cc1` [Example 107, 4-{4-[3-(5-chloro-2-ethoxy-phenyl)-ureido]-phenyl}-piperazine-1-carboxylic acid (2-chloro-4-methyl-phenyl)-amide], the melting point was 124 to 126 °C. Further, on mouse DGAT1, the inhibition at 0.1 µg/mL was ≥ 50%.
In the case of `COc1ccc(NC(=O)N2CCN(c3ccc(NC(=O)Nc4cc(Cl)ccc4OC)cc3)CC2)c(C)c1` [Example 109, 4-{4-[3-(5-chloro-2-methoxy-phenyl)-ureido]-phenyl}-piperazine-1-carboxylic acid (4-methoxy-2-methyl-phenyl)-amide], the melting point lay in the range of 225 to 226 °C. Further, at mouse DGAT1, the inhibition at 0.1 µg/mL is ≥ 50%.
Compound `CCOc1ccccc1NC(=O)Nc1ccc(N2CCN(C(=O)Nc3ccc(OC)cc3C)CC2)cc1` [Example 110, 4-{4-[3-(2-ethoxy-phenyl)-ureido]-phenyl}-piperazine-1-carboxylic acid (4-methoxy-2-methyl-phenyl)-amide] showed a melting point of 202 to 203 °C. The inhibition at 0.1 µg/mL at mouse DGAT1 is ≥ 50%.
The matching figures for `CCOc1ccc(C)cc1NC(=O)Nc1ccc(N2CCN(C(=O)Nc3ccc(OC)cc3C)CC2)cc1` [Example 111, 4-{4-[3-(2-ethoxy-5-methyl-phenyl)-ureido]-phenyl}-piperazine-1-carboxylic acid (4-methoxy-2-methyl-phenyl)-amide]: 202 to 204 °C and ≥ 50%.
For the compound `CCOc1ccc(F)cc1NC(=O)Nc1ccc(N2CCN(C(=O)Nc3ccc(OC)cc3C)CC2)cc1` [Example 112, 4-{4-[3-(2-ethoxy-5-fluoro-phenyl)-ureido]-phenyl}-piperazine-1-carboxylic acid (4-methoxy-2-methyl-phenyl)-amide], the melting point is 186 to 189 °C. Besides, at mouse DGAT1, the inhibition at 0.1 µg/mL was ≥ 50%.
`COc1ccc(NC(=O)N2CCN(c3ccc(NC(=O)Nc4cc(F)ccc4OC)cc3)CC2)c(C)c1` [Example 113, 4-{4-[3-(5-fluoro-2-methoxy-phenyl)-ureido]-phenyl}-piperazine-1-carboxylic acid (4-methoxy-2-methyl-phenyl)-amide]: the melting point was 216 to 218 °C. The inhibition at 0.1 µg/mL at mouse DGAT1 was ≥ 50%.
`COc1ccc(Cl)cc1NC(=O)Nc1ccc(N2CCN(C(=O)Nc3c(C)cccc3C)CC2)cc1` [Example 114, 4-{4-[3-(5-chloro-2-methoxy-phenyl)-ureido]-phenyl}-piperazine-1-carboxylic acid (2,6-dimethyl-phenyl)-amide] gave a melting point of 216 to 218 °C. Besides, at mouse DGAT1, the inhibition at 0.1 µg/mL was ≥ 50%.
The compound `COc1ccc(Cl)cc1NC(=O)Nc1ccc(N2CCN(C(=O)Nc3c(F)cccc3C(F)(F)F)CC2)cc1` [Example 115, 4-{4-[3-(5-chloro-2-methoxy-phenyl)-ureido]-phenyl}-piperazine-1-carboxylic acid (2-fluoro-6-trifluoromethyl-phenyl)-amide] showed a melting point of 156 to 158 °C. At mouse DGAT1, the inhibition at 0.1 µg/mL is ≥ 50%.
